For assay [1], the system named is HeLa Lysate. The assay is described as follows: Cell free translation assay of hEPO mRNAs carrying different caps. The class given is biochemical. Conditions: hEPO levels after 3 hours; mRNA carrying the cap; modRNA with 5-methoxy uridine.
For a further assay, the system named is CD-1 mice. The assay can be described thus: In vivo expression assay of hEPO mRNA in MC3-based LNP. To be noted: i.v. bolus 0.05 mg/kg, 6 h after injection, mRNA carrying the cap, 5-methoxy uridine. On the procedure: mRNAs encoding hEPO are synthesized according to the method described in Example 2 above, co-transcriptionally incorporating cap analogs of the disclosure. […] A MC3-based lipid nanoparticle (LNP) formulation of the synthesized mRNA is produced, and is intravenously administered to CD-1 mice (n=3) at a bolus dose of 0.05 mg/kg. The level of hEPO was tested at 6 h, 24 h, or 48 h after injection.

The next assay addresses T1, eIF4E (Homo sapiens, UniProt P06730).
T1 construct: HNAVIpeptTEVeIF4E 32-217(Biotinylated)
The assay can be described thus: Binding affinities to eIF4E using surface plasmon resonance (SPR).

The subject of assay [2] is human primary hepatocytes. The assay is described as follows: Cell-based expression assay in human primary hepatocytes. To be noted: normalized expression level of mRNA carrying the cap, 5-methoxy uridine; Compound 7 mRNA Cap0-like, others Cap1-like.
Assay [3] has as its system HeLa Lysate. The assay can be described thus: Cap competition assay in kinetic cell free in vitro translation (free cap analogs vs Cap1-tipped eGFP modRNA). It is filed as biochemical. Conditions: free cap analog 0-100 uM; modRNA with 1-methyl-pseudouridine and 5-methyl cytidine; fluorescence plateau. As to the method:
The in vitro translation assay was conducted with the HeLa 1-step coupled IVT kit (ThermoFisher Scientific, Waltham, Mass.) according to the manufacturer's instructions to assess performance of new cap analogs as free compounds or as an integral part of capped mRNA. Cap analogs with affinity to eIF4E protein may reduce protein synthesis rate in cell-free translation. Further, RNAs containing such cap analogs (“Cap-modRNA”) show different potency of protein synthesis in cell-free translation.
The modified RNAs (“modRNAs”) of eGFP and mCitrine-degron, harboring chemical modifications on either the CAP structures, selected ribose units and/or the bases, were diluted in sterile nuclease-free water to a final amount of 500 ng in 5 uL. […] The in vitro translation reaction was done in a standard 96-well round bottom plate (Corning, Corning, N.Y.), covered with an self-adhesive fluorescence-compatible seal (BioRad, Hercules, Calif.) at 30° C. inside the plate reader Cytation 3 (BioTek, Winooski, Vt.).
The fluorescent signal per reaction increased over time and is considered proportional to the occurring protein synthesis. Each cell-free translation reaction was monitored for 120-180 min with the following settings: eGFP protein—ex. […] The height of the reading head was set to 1 mm above the plate and a reading speed of one per sample every 17 seconds. […]

Setting [4] is: residence time as listed in Table 5.

T1 sequence (P06730 32-217): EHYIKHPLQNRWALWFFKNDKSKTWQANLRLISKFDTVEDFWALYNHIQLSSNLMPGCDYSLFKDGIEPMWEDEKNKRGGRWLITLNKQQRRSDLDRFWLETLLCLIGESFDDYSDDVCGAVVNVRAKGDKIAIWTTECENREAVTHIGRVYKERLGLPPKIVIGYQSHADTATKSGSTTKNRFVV
Procedure for eIF4E: General Outline of the Assay Procedure
A sensor chip SA (GE Healthcare) is docked into a Biacore 3000 instrument.
Compound concentration series are injected over the immobilized protein serially in increasing concentration. Interaction models are fitted globally to the experimental traces, enabling determination of Kd or KD (binding affinity; unit: M) and possibly kon (on-rate, calculated from the association phase; unit: M^−1s^−1) and koff (off-rate, calculated from the dissociation phase; unit: s^−1).
Preparation of Sensor Chip
A sensor chip (SAD5001 or SA) was docked into a Biacore 3000 instrument, washed with 50 mM NaOH, 1M NaCl. Protein eIF4E was diluted in running buffer (50 mM HEPES, 150 mM KCl, 10 mM MgCl2, 2 mM TCEP) to ˜1 μM. The diluted protein solution was injected for 300-600 seconds. Typical capture levels were 5000-6000 RU.
Test compounds were solubilized in ddH2O or DMSO to 10 mM. 100 μM stocks were prepared by 100-fold dilution in running buffer (50 mM HEPES, 150 mM KCl, 10 mM MgCl2). Assay was run with or without 1% DMSO.
Data were analyzed in GeneData. Curve fit was accepted or rejected by looking at the resulting sensorgrams and steady state fits.
Assay has been validated using running buffer with and without DMSO.

`CO[C@H]1[C@@H](O)[C@H](n2c[n+](C)c3c(=O)[nH]c(N)nc32)O[C@@H]1COP(=O)(O)OP(=O)(O)OP(=O)(O)OC[C@H]1O[C@@H](n2cnc3c(=O)[nH]c(N)nc32)[C@H](O)[C@@H]1O` [ARCA]: in the assay on HeLa Lysate [1], the “CFT (norm to conc. & capping & cap1)” value was found to be 1.93. Besides, in the assay on CD-1 mice, the “in vivo hEPO normalized to capping and Cap1” value was 0.70. For the same molecule, the τ on eIF4E (setting [4]) came to 0.6 s. In assay [2], the “h-primHeps norm to Capping and Cap1” value worked out at 1.52.

Broadly, the IC50 is the concentration that inhibits the measured activity by half. Low readings indicate greater potency in that assay, high ones weaker potency in that assay. On to `Cn1c[n+]([C@@H]2O[C@H](COP(=O)(O)OP(=O)([O-])OP(=O)(O)OC[C@H]3O[C@@H](n4cnc5c(=O)[nH]c(N)nc54)[C@H](O)[C@@H]3O)[C@@H](O)[C@H]2O)c2nc(N)[nH]c(=O)c21` [Cap0 (i.e., m7GpppG), m7GpppG], for which, on eIF4E (residence time, inverse of koff, Table 3), the τ was 1.25 s. In the assay with HeLa Lysate [3], this molecule registered a half-maximal inhibitory concentration (IC50) of 36 µM.

As to `CO[C@@H]1[C@H](O)[C@@H](COP(=O)(O)OP(=O)(O)OP(=O)(O)OC[C@H]2O[C@@H]([n+]3cn(C)c4c(=O)[nH]c(N)nc43)[C@H](O)[C@@H]2O)O[C@H]1n1cnc2c(=O)[nH]c(N)nc21` [Cap1, m7GpppG(2′-Om)], the “CFT (norm to conc. & capping & cap1)” value with HeLa Lysate [1] was 1.00. For the same molecule, in the assay with CD-1 mice, the “in vivo hEPO normalized to capping and Cap1” value is 1.00. Moreover, the τ at eIF4E (setting [4]) is 1.3 s. For the same molecule, in assay [2], the “h-primHeps norm to Capping and Cap1” value is recorded as 1.00.

As usually defined, the Kd is the free concentration of one partner at which half of the binding sites on the other are occupied at equilibrium, for simple one-to-one binding. A high value points to lower affinity. On eIF4E (SPR, Biacore 3000, captured biotinylated eIF4E, Table 3), `C[n+]1cn([C@@H]2O[C@H](COP(=O)([O-])OCCN(CCOP(=O)([O-])OC[C@H]3O[C@@H](n4c[n+](C)c5c(=O)[nH]c(N)nc54)[C@H](O)[C@@H]3O)C(=O)OC(C)(C)C)[C@@H](O)[C@H]2O)c2nc(N)[nH]c(=O)c21` [Compound 25] registered a Kd of 300 µM.

The values above are taken from patent US10428106B2, “Phosphate replacement mRNA cap analogs” (ModernaTX, Inc., priority 2015, dated 2019).
